Molecules are shown by their SMILES.

In the test the target is T1, Monoacylglycerol lipase ABHD6 [33-337] (Homo sapiens, UniProt Q9BV23).
T1 construct: 33-337
T1 sequence (Q9BV23 whole entry): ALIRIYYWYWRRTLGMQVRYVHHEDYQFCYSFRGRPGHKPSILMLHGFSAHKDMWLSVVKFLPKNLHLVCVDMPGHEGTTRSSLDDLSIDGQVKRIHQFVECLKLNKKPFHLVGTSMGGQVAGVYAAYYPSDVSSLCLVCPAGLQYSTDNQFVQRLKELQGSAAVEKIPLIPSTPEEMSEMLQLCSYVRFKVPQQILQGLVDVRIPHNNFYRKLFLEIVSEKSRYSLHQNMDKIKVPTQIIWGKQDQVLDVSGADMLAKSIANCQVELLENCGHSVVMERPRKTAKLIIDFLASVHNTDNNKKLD
Kind of test: Evaluation of ABHD6 Enzyme Inhibitory Activity Assay. The method, then: The enzyme reaction was carried out at room temperature using a 384-well microplate made of polypropylene, and wells to which no enzyme was added were designated as a blank group. One hour after the start of the enzyme reaction, methanol containing, as an internal standard substance, arachidonic acid-d8 (Cayman Chemical) and 1% formic acid was added to stop enzymatic reaction. The upper part of the enzyme reaction plate was sealed with aluminum, and centrifugation was performed at 560 g for 5 minutes at room temperature. Then, arachidonic acid as an enzyme reaction product and arachidonic acid-ds as the internal standard substance were quantified with RapidFire (registered trademark)-Mass Spectrometry system.

Consider `CN(C)c1ncc(C(=O)N2C[C@@H]3CC[C@@H](Nc4ccc(Br)nn4)[C@@H]3C2)s1` [US20240010658, Example 2-6], for which the 50% inhibitory concentration (IC50) result is “in the range around 2 nM”.

The IC50 is the concentration that inhibits the measured activity by half. Low values mean inhibition by little substance, high ones a need for much substance.

For the origin of these results see BindingDB's records for patent US20240010658 (Ono Pharmaceutical Co., 2024).
